This experiment concerns the target T1, KRAS G12C 1-169, his-tagged protein, GDP-loaded (Homo sapiens, UniProt P01116, G12C).
T1 construct: KRAS G12C 1-169, his-tagged protein, GDP-loaded
Kind of experiment: Biochemical assay: covalent modification of KRAS G12C measured by mass spectrometry. The format is binding. To be noted: modification of KRAS G12C at 10 minutes. As to the method:
Test compounds were prepared as 10 mM stock solutions in DMSO (Fisher cat #BP-231-100). KRAS G12C 1-169, his-tagged protein, GDP-loaded was diluted to 2 μM or 0.5 μM in buffer (20 mM Hepes, 150 mM NaCl, 1 mM MgCl2).
Compounds were tested for activity as follows: Compounds were diluted to 50× final test concentration in DMSO in 96-well storage plates. Compound stock solutions were vortexed before use and observed carefully for any sign of precipitation. Dilutions were as follow: • For 100 μM final compound concentration, compounds were diluted to 5000 μM (5 μL 10 mM compound stock+5 μL DMSO and mixed well by pipetting. • For 30 μM final compound concentration, compounds were diluted to 1500 μM (3 μL 10 mM compound stock+17 μL DMSO) and mixed well by pipetting. • For 10 μM final compound concentration, compounds were diluted to 500 μM (2 μL 10 mM compound stock+38 μL DMSO) and mixed well by pipetting. 49 μL of the stock protein solution was added to each well of a 96-well PCR plate (Fisher cat #1423027). 1 μL of the diluted 50× compounds were added to appropriate wells in the PCR plate using 12-channel pipettor. Reactions were mixed carefully and thoroughly by pipetting up/down with a 200 μL multi-channel pipettor. The plate was sealed well with aluminum plate seal, and stored in drawer at room temperature for 10 minutes, 30 minutes, 2 hours or 24 hours. 5 μL of 2% formic acid (Fisher cat #A117) in de-ionized H2O was then added to each well followed by mixing with a pipette. The plate was then resealed with aluminum seal and stored on dry ice until analyzed as described below.
The above described assays are analyzed by mass spectrometry according to one of the following two procedures:
The MS instrument was set to positive polarity, 2 GHz resolution, and low mass (1700) mode and allowed to equilibrate for 30 minutes. The instrument was then calibrated, switched to acquisition mode and the appropriate method loaded.
After another 30 minute equilibration time, a blank batch (i.e., buffer) was run to ensure equipment is operating properly. The samples are thawed at 37° C. for 10 minutes, briefly centrifuged, and transferred to the bench top. Wells A1 and H12 were spiked with 1 μL 500 μM internal standard peptide, and the plates centrifuged at 2000×g for 5 minutes. The method was then run and masses of each individual well recorded.
The masses (for which integration data is desired) for each well were pasted into the platemap and exported from the analysis. Masses for the internal standards were exported as well. The data at 50 ppm was extracted for the +19 charge state, and identity of well A1 was assigned using the internal standard spike and integrated. Peak data was exported as a TOF list and the above steps are repeated individually, for the +20, 21, 22, 23, 24, and 25 charge states.
? -Exactive Assay:
The masses and peak intensities of KRAS G12C protein species were measured using a Dionex RSLCnano system (Thermo Scientific) connected to a Q Exactive Plus mass spectrometer (Thermo Scientific). […] of sample was each loaded onto a Aeris™ […] WIDEPORE C4 200 Å, LC Column 50×2.1 mm column maintained at 40° C. at a flow rate of 600 μL/min with 20% Solvent A (0.1% formic acid in H2O) and […] (0.1% formic acid in acetonitrile). The liquid chromatography conditions were 20% solvent B for 1 minute, 20% to 60% solvent B for 1.5 minutes, 60% to 90% solvent for 0.5 minute, 90% solvent B for 0.2 minute, 90% to 20% solvent B for 0.2 minute, and then equilibrated for 1.6 minutes before the following sample injection. The flow rate was maintained at 600 μL/min throughout sample analysis.
The mass spectrometer was operated in profile mode at a resolution of 17500, 5 microscans, using 50 msec max injection time and an AGC target of 1×10^6, and a full mass range from 800-1850 m/z was recorded. The HCD trapping gas was optimized for maximum sensitivity for intact proteins. […]

As for “1-(6-(6-chloro-7-(5-methyl-1H-indazol-4-yl)-2-(((S)-1-methylpyrrolidin-2-yl)methoxy)-8-(2,2,2-trifluoroethoxy)quinazolin-4-yl)-2,6-diazaspiro[3.4]octan-2-yl)prop-2-en-1-one [Compound I-75]”, the Binding % entry is “+++ (+++ indicates binding activity greater than 85% at 10 minutes)”.

Turning to “1-(6-(7-(5-methyl-1H-indazol-4-yl)-2-(((S)-1-methylpyrrolidin-2-yl)methoxy)-8-(2,2,2-trifluoroethoxy)-6-vinylquinazolin-4-yl)-2,6-diazaspiro[3.4]octan-2-yl)prop-2-en-1-one [Compound I-74]”, the Binding % result is given as “++ (++ indicates binding activity from 50 to 85% at 10 minutes)”.

On to `C=CC(=O)C1CC2(CCN1c1nc(=O)n(-c3ccccc3C(C)C)c3cc(-c4c(C)ccc5[nH]ncc45)c(Cl)cc13)CNC2` (single isomer, unassigned) [II-5a, 4-(6-acryloyl-2,7-diazaspiro[3.5]nonan-7-yl)-6-chloro-1-(6-isopropylphenyl)-7-(5-methyl-1H-indazol-4-yl)quinazolin-2(1H)-one], for which the Binding % result was “+ (+ indicates binding activity greater than 0% and up to 50% at 10 minutes)”.

On to `C=CC(=O)C1CC2(CCN1c1nc(=O)n(-c3ccccc3C(C)C)c3cc(-c4c(C)ccc5[nH]ncc45)c(Cl)cc13)CNC2` (single isomer, unassigned) [II-5b, 4-(6-acryloyl-2,7-diazaspiro[3.5]nonan-7-yl)-6-chloro-1-(6-isopropylphenyl)-7-(5-methyl-1H-indazol-4-yl)quinazolin-2(1H)-one], for which the Binding % entry was “++ (++ indicates binding activity from 50 to 85% at 10 minutes)”.

On to `C=CC(=O)N1CC2(CCN(c3nc(OC[C@@H]4CCCN4C)nc4c(F)c(-c5c(C)ccc6cnn(C)c56)c(Cl)cc34)C2)C1` [Compound I-1, 1-(6-(6-chloro-7-(1,6-dimethyl-1H-indazol-7-yl)-8-fluoro-2-(((S)-1-methylpyrrolidin-2-yl)methoxy)quinazolin-4-yl)-2,6-diazaspiro[3.4]octan-2-yl)prop-2-en-1-one], for which the Binding % entry is recorded as “++ (++ indicates binding activity from 50 to 85% at 10 minutes)”.

For `C=CC(=O)N1CC2(CCN(c3nc(OC[C@@H]4CCCN4C)nc4c(F)c(-c5c(C)ccc6cnn(C)c56)c(Cl)cc34)CC2)C1` [Compound I-2, 1-(7-(6-chloro-7-(1,6-dimethyl-1H-indazol-7-yl)-8-fluoro-2-(((S)-1-methylpyrrolidin-2-yl)methoxy)quinazolin-4-yl)-2,7-diazaspiro[3.5]nonan-2-yl)prop-2-en-1-one], the Binding % result was “+++ (+++ indicates binding activity greater than 85% at 10 minutes)”.

As to `C=CC(=O)N1CC2(CCN(c3nc(OC[C@@H]4CCCN4C)nc4c(F)c(-c5c(C)ccc6cn[nH]c56)c(Cl)cc34)CC2)C1` [Compound I-3, 1-(7-(6-chloro-8-fluoro-7-(6-methyl-1H-indazol-7-yl)-2-(((S)-1-methylpyrrolidin-2-yl)methoxy)quinazolin-4-yl)-2,7-diazaspiro[3.5]nonan-2-yl)prop-2-en-1-one], the Binding % entry is reported as “+++ (+++ indicates binding activity greater than 85% at 10 minutes)”.

For the compound `C=CC(=O)N1CC2(CCN(c3nc(OC[C@@H]4CCCN4C)nc4c(F)c(-c5c(C)ccc6[nH]ncc56)c(Cl)cc34)CC2)C1` [Compound I-6, 1-(7-(6-chloro-8-fluoro-7-(5-methyl-1H-indazol-4-yl)-2-(((S)-1-methylpyrrolidin-2-yl)methoxy)quinazolin-4-yl)-2,7-diazaspiro[3.5]nonan-2-yl)prop-2-en-1-one], the Binding % entry is “+++ (+++ indicates binding activity greater than 85% at 10 minutes)”.

For `C=CC(=O)N1CC2(CCN(c3c(Cl)c(-c4c(C)ccc5[nH]ncc45)c(OCC(F)(F)F)c4nc(OC[C@@H]5CCCN5C)ncc34)C(C)C2)C1` (stereo partly drawn) [Compound I-76, 1-(7-(6-chloro-7-(5-methyl-1H-indazol-4-yl)-2-(((S)-1-methylpyrrolidin-2-yl)methoxy)-8-(2,2,2-trifluoroethoxy)quinazolin-5-yl)-6-methyl-2,7-diazaspiro[3.5]nonan-2-yl)prop-2-en-1-one], the Binding % result is reported as “++ (++ indicates binding activity from 50 to 85% at 10 minutes)”.

(Values after US20220112192A1, “COMPOUNDS AND METHODS OF USE THEREOF FOR TREATMENT OF CANCER” (ARAXES PHARMA LLC, priority 2018, published 2022).)
